Test results reported in the NIST ThermoML archive (doi:10.1016/j.jct.2007.05.008).
Numbers after ± are expanded uncertainties.

Assay: mn = molality of the nth substance listed, in mol/kg
Conditions: 350 kPa, Liquid; for apparent molar heat capacity: Extra sensitive DSC

[I-].[K+] [potassium iodide] + O
Conditions | apparent molar heat capacity [J/K/mol] | mass density [kg/m3]
278.15 K, m1 = 0.0151 | – | 1001.67 ± 0.16
278.15 K, m1 = 0.0299 | – | 1003.68 ± 0.15
278.15 K, m1 = 0.0701 | – | 1008.43 ± 0.15
278.15 K, m1 = 0.2001 | – | 1024.58 ± 0.16
278.15 K, m1 = 0.5376 | – | 1064.35 ± 0.19
278.15 K, m1 = 0.6957 | – | 1081.95 ± 0.2
278.15 K, m1 = 1.001 | – | 1117.05 ± 0.23
278.15 K, m1 = 2.5 | – | 1271.29 ± 0.38
278.15 K, m1 = 4.636 | – | 1453.94 ± 0.56
278.15 K, m1 = 5.479 | – | 1515.42 ± 0.62
278.15 K, m1 = 7.501 | – | 1648.17 ± 0.76
283.15 K, m1 = 0.0151 | – | 1001.47 ± 0.16
283.15 K, m1 = 0.0299 | – | 1003.4 ± 0.15
283.15 K, m1 = 0.0701 | – | 1008.17 ± 0.15
283.15 K, m1 = 0.2001 | – | 1024.09 ± 0.16
283.15 K, m1 = 0.5376 | – | 1063.61 ± 0.19
283.15 K, m1 = 0.6957 | – | 1081.08 ± 0.2
283.15 K, m1 = 1.001 | – | 1115.82 ± 0.23
283.15 K, m1 = 2.5 | – | 1268.99 ± 0.37
283.15 K, m1 = 4.636 | – | 1450.65 ± 0.55
283.15 K, m1 = 5.479 | – | 1512.83 ± 0.62
283.15 K, m1 = 7.501 | – | 1645.23 ± 0.75
288.15 K, m1 = 0.0151 | – | 1000.88 ± 0.16
288.15 K, m1 = 0.0299 | – | 1002.77 ± 0.15
288.15 K, m1 = 0.0701 | – | 1007.55 ± 0.15
288.15 K, m1 = 0.2001 | – | 1023.33 ± 0.16
288.15 K, m1 = 0.5376 | – | 1062.62 ± 0.19
288.15 K, m1 = 0.6957 | – | 1080.04 ± 0.2
288.15 K, m1 = 1.001 | – | 1114.31 ± 0.23
288.15 K, m1 = 2.5 | – | 1266.38 ± 0.37
288.15 K, m1 = 4.636 | – | 1448.01 ± 0.55
288.15 K, m1 = 5.479 | – | 1510.11 ± 0.61
288.15 K, m1 = 7.501 | – | 1642.29 ± 0.75
298.15 K, m1 = 0.0151 | – | 998.82 ± 0.17
298.15 K, m1 = 0.0299 | – | 1000.63 ± 0.15
298.15 K, m1 = 0.0701 | – | 1005.39 ± 0.15
298.15 K, m1 = 0.2001 | – | 1021 ± 0.16
298.15 K, m1 = 0.5376 | – | 1059.83 ± 0.18
298.15 K, m1 = 0.6957 | – | 1077.25 ± 0.2
298.15 K, m1 = 1.001 | – | 1110.96 ± 0.22
298.15 K, m1 = 2.5 | – | 1261.31 ± 0.36
298.15 K, m1 = 4.636 | – | 1441.32 ± 0.55
298.15 K, m1 = 5.479 | – | 1503.36 ± 0.61
298.15 K, m1 = 7.501 | – | 1635.01 ± 0.74
303.15 K, m1 = 5.479 | 1.3 ± 5 | –
308.15 K, m1 = 0.0151 | – | 995.79 ± 0.16
308.15 K, m1 = 0.0299 | – | 997.53 ± 0.15
308.15 K, m1 = 0.0701 | – | 1002.28 ± 0.15
308.15 K, m1 = 0.2001 | – | 1017.73 ± 0.15
308.15 K, m1 = 0.5376 | – | 1056.13 ± 0.18
308.15 K, m1 = 0.6957 | – | 1073.61 ± 0.19
308.15 K, m1 = 1.001 | – | 1106.78 ± 0.22
308.15 K, m1 = 2.5 | – | 1255.84 ± 0.36
308.15 K, m1 = 4.001 | 0.4 | –
308.15 K, m1 = 4.636 | – | 1434.16 ± 0.54
308.15 K, m1 = 5.479 | 1.8 ± 5 | 1495.89 ± 0.6
308.15 K, m1 = 7.501 | – | 1626.88 ± 0.74
313.15 K, m1 = 4.001 | 1.4 ± 5 | –
313.15 K, m1 = 5.479 | 1.7 ± 5.2 | –
318.15 K, m1 = 0.0151 | – | 991.94 ± 0.16
318.15 K, m1 = 0.0299 | – | 993.68 ± 0.15
318.15 K, m1 = 0.0701 | – | 998.38 ± 0.15
318.15 K, m1 = 0.2001 | – | 1013.67 ± 0.15
318.15 K, m1 = 0.5376 | – | 1051.77 ± 0.18
318.15 K, m1 = 0.6957 | – | 1069.13 ± 0.19
318.15 K, m1 = 1.001 | – | 1101.94 ± 0.22
318.15 K, m1 = 2.5 | – | 1249.89 ± 0.35
318.15 K, m1 = 4.001 | 1.9 ± 5.2 | –
318.15 K, m1 = 4.636 | – | 1426.64 ± 0.53
318.15 K, m1 = 5.479 | 1.2 ± 5.2 | 1488.09 ± 0.59
318.15 K, m1 = 7.501 | – | 1618.36 ± 0.73
323.15 K, m1 = 4.001 | 2 ± 5.2 | –
323.15 K, m1 = 5.479 | 0.4 | –
328.15 K, m1 = 0.0151 | – | 987.43 ± 0.16
328.15 K, m1 = 0.0299 | – | 989.17 ± 0.15
328.15 K, m1 = 0.0701 | – | 993.85 ± 0.15
328.15 K, m1 = 0.2001 | – | 1008.93 ± 0.15
328.15 K, m1 = 0.5376 | – | 1046.78 ± 0.17
328.15 K, m1 = 0.6957 | – | 1064 ± 0.18
328.15 K, m1 = 1.001 | – | 1096.55 ± 0.21
328.15 K, m1 = 2.5 | – | 1243.46 ± 0.35
328.15 K, m1 = 4.001 | 1.7 ± 5.2 | –
328.15 K, m1 = 4.636 | – | 1418.83 ± 0.52
328.15 K, m1 = 5.479 | – | 1479.85 ± 0.58
328.15 K, m1 = 7.501 | – | 1609.25 ± 0.72
333.15 K, m1 = 4.001 | 1.3 ± 5.4 | –
338.15 K, m1 = 0.0151 | – | 982.32 ± 0.17
338.15 K, m1 = 0.0299 | – | 984.03 ± 0.15
338.15 K, m1 = 0.0701 | – | 988.65 ± 0.15
338.15 K, m1 = 0.2001 | – | 1003.58 ± 0.14
338.15 K, m1 = 0.5376 | – | 1041.14 ± 0.17
338.15 K, m1 = 0.6957 | – | 1058.16 ± 0.18
338.15 K, m1 = 1.001 | – | 1090.66 ± 0.21
338.15 K, m1 = 2.5 | – | 1236.58 ± 0.34
338.15 K, m1 = 4.001 | 0.6 ± 5.4 | –
338.15 K, m1 = 4.636 | – | 1410.65 ± 0.51
338.15 K, m1 = 5.479 | – | 1471.57 ± 0.57
338.15 K, m1 = 7.501 | – | 1600.65 ± 0.71
348.15 K, m1 = 0.0151 | – | 976.56 ± 0.17
348.15 K, m1 = 0.0299 | – | 978.32 ± 0.16
348.15 K, m1 = 0.0701 | – | 982.92 ± 0.15
348.15 K, m1 = 0.2001 | – | 997.75 ± 0.14
348.15 K, m1 = 0.5376 | – | 1035.02 ± 0.16
348.15 K, m1 = 0.6957 | – | 1051.97 ± 0.17
348.15 K, m1 = 1.001 | – | 1084.3 ± 0.2
348.15 K, m1 = 2.5 | – | 1229.37 ± 0.33
348.15 K, m1 = 4.636 | – | 1402.31 ± 0.51
348.15 K, m1 = 5.479 | – | 1463.16 ± 0.57
348.15 K, m1 = 7.501 | – | 1591.74 ± 0.7
358.15 K, m1 = 0.0151 | – | 970.33 ± 0.18
358.15 K, m1 = 0.0299 | – | 972.11 ± 0.16
358.15 K, m1 = 0.0701 | – | 976.68 ± 0.16
358.15 K, m1 = 0.2001 | – | 991.55 ± 0.15
358.15 K, m1 = 0.5376 | – | 1028.65 ± 0.16
358.15 K, m1 = 0.6957 | – | 1045.42 ± 0.17
358.15 K, m1 = 1.001 | – | 1077.52 ± 0.2
358.15 K, m1 = 2.5 | – | 1221.83 ± 0.32
358.15 K, m1 = 4.636 | – | 1393.66 ± 0.5
358.15 K, m1 = 5.479 | – | 1455.05 ± 0.56
358.15 K, m1 = 7.501 | – | 1583.19 ± 0.69
368.15 K, m1 = 0.0151 | – | 963.58 ± 0.17
368.15 K, m1 = 0.0299 | – | 965.34 ± 0.17
368.15 K, m1 = 0.0701 | – | 969.93 ± 0.16
368.15 K, m1 = 0.2001 | – | 984.74 ± 0.15
368.15 K, m1 = 0.5376 | – | 1021.81 ± 0.16
368.15 K, m1 = 0.6957 | – | 1038.47 ± 0.16
368.15 K, m1 = 1.001 | – | 1070.31 ± 0.19
368.15 K, m1 = 2.5 | – | 1213.99 ± 0.33
368.15 K, m1 = 4.636 | – | 1384.78 ± 0.49
368.15 K, m1 = 5.479 | – | 1446.45 ± 0.55
368.15 K, m1 = 7.501 | – | 1574.23 ± 0.68
